# Measurements as given in patent US20090247495A1, “CU[…] AND USES THEREOF” (priority 2007, published 2009).
# Columns and labels:
# [1] = system: Stat3; test: Western blot of Stat3 activation in HepG2, HT29 and MCF-7 cells; type: cell-based, human
# [2] = system: Ras-GTP; test: GTPase pull-down assay (GST-Raf1-RBD) in K562 cells; type: cell-based, human; conditions: 50 μM, 2 minutes to 4 hours
# Method: Lysate with 500 μg protein were used to determined the Ras-GTP content by the Glutathione S-transferase(GST)-RBD(Ras-binding domain of Raf) pull down assay. The treated and control cells were lysed in lysis buffer (25 mMTris-HCl, pH7.5, 150 mM NaCl, 5 mM MgCl2, 1% NP-40, 1 mM DTT and 5% glycerol) for 5 minutes at 4° C. Soluble cell lysates were obtained by centrifuged at 17000 g for 5 minutes. 500 μg cell lysate were collected and incubated with 80 μg GST-Raf1-RBD in 50 mM Tris-HCl, pH7.2, 150 mM NaCl, 0.5% Triton X-100, 5 mM MgCl2, 1 m MDTT and 10% glycerol for 1 hour at 4° C. The beads were washed with lysis buffer for 3 times and then resuspended and boiled in 2×sample buffer at 100° C. for 5 minutes. 25 μsupernatants were collected by centrifuged at 7200 g for 2 minutes and then resolved in 15% SDS-PAGE followed by western blot analysis using anti-Ras antibody. • 6.1.8 Laboratory-Scale Preparation of Cucurbitacin B and Cucurbitacin D
# In order to further investigate if cucurbitacin B block the Stat3 activation is truly through Erk pathway in K562 cells, the ability of cucurbitacin B to inhibit the Ras/Raf/Mek/Erk pathway was determined by measuring Ras-GTP, phosphorylation of c-Raf, Mek1/2, Erk1/2 and Elk-1 in K562 cells. The cells were incubated with 50 μM cucurbitacin B for the indicated time intervals (2 minutes, 5 minutes, 10 minutes, 30 minutes, 1 hour and 4 hours). […]
# [3] = system: HL60 cells and U937 cells; test: Cytocentrifuged, fixed and stained cells (multinucleation); type: cell-based, human; conditions: 1×10^−8 M or 5×10^−8 M, 96 hours
# Method: HL60 cells, as depicted in FIGS. 13A to 13C, and U937 cells, as depicted in FIGS. 13D to 13F, were cytocentrifuged, fixed and stained. Cells were treated with either 1×10^−8 M (FIGS. 13B, 13C and 13E) or 5×10^−8 M (FIG. 13F) cucurbitacin B for 96 hours, and compared with diluent treated control cells (FIGS. 13A and […]).
# [4] = system: Panc 10.05; test: MTT cell cytotoxicity assay, Panc 10.05; type: cell-based; conditions: Homo sapiens, Panc1005, 48 hours
# Method: Three human pancreatic cancer cell lines (Panc-1, Panc 02.13, Panc 10.05) were purchased from American Type Culture Collection (ATCC, Manassas, Va., USA). Panc 02.13 and Panc 10.05 were grown in RPMI 1640 medium supplemented with 15% FBS, 4.5 g/L glucose, 10 mM HEPES, and 1.0 mM sodium pyruvate and 10 Units/ml human insulin; while PANC-1 was grown in Dulbecco's modified Eagle's medium supplemented with 10% FBS. They were maintained in a humidified 5% CO2 atmosphere at 37° C. and the culture medium was changed once in 2 days.
# The cytotoxic effect of CuB on these three cancer cell lines were determined using MTT (3-[4,5-dimethylthiazol-2-yl]-2,5-diphenyl tetrazolium bromide) labeled cell cytotoxicity assay. A total of 1×10^4 cells were seeded into a 96-well plate for 24 hours prior to cucurbitacin B (CuB) treatment. They were then treated with different dosages of CuB for 48 hours. After the treatment, 20 μl of MTT (5 mg/ml) was added to each well and incubated for 4 hrs. Then the medium was discarded and 100 μl of dimethyl sulfoxide was added. The absorbance at 570 nm was then measured by FLUOstar OPTIMA equipment (BMG, LABTECH GmbH, Germany). The percentage of inhibition against different dosages of CuB were plotted using the Prism software and the 50% inhibition concentration (IC50) were obtained. […]
# [5] = system: K562; test: Cell proliferation assay using SRB, K562; type: cell-based; conditions: Homo sapiens, 48 hours treatment
# Method: Human leukemia cell lines CCRF-CEM, K562, MOLT-4, RPMI-8226 and SR, purchased from the National Cancer Institute (NCI), were cultured in RPMI 1640 medium supplemented with 5%(v/v) fetal Bovine […] and 100 units/ml penicillin and 100 units/ml streptomycin in a humidified 5% CO2 atmosphere at 37° C. • 6.1.2 Reagents and Antibodies
# All 5 human leukemia cells were screened by the cell proliferation assay using SRB to quantitative cell protein mass following cucurbitacin B treatment. The experiments were repeated in triplicate. Appropriate number of cells (depends on the doubling time of cells) were seeded into a 96-well tissue culture plate and growth in the indicated medium in presence of different dosages of cucurbitacin B for 2 days. Afterwards 25 μl 80%TCA reagent was added into each well to fix the cells and the plates were incubated at 4° C. at least for 1 hour. Then the plates were washed with tap water and air dried. […] The plates were air dried and dissolved by 100 μl 1 OmMTrizma-base solution and the absorbance was measured at 515 nm using FLUOstar OPTIMA equipment. • 6.1.4 Flow Cytometry for Apoptosis Analysis
# Appropriate number of cell density were seeded into a 96 well culture plate and treated with different doses of cucurbitacin B for 2 days. The growth inhibition effects of cucurbitacin B on the cells were detected using SRB.
# [6] = system: Panc-1 and SW cells; test: Cell cycle analysis by flow cytometry, pancreatic cells; type: cell-based, human; conditions: different periods
# Method: Panc-1 and SW cells were incubated with cucurbitacin B for different periods at 37° C. At specific time points, cells were washed and fixed with chilled 80% ethanol, and incubated on ice for 30 min. prior to staining with propidium iodide. All analyses were performed by flow cytometry.
# [7] = system: K562 cells; test: Cell morphology by microscopy, K562; type: cell-based, human; conditions: 48 hours
# Method: 10^5/ml K562 cells were treated with cucurbitacin B in the presence of complete medium containing 10% FBS for 48 hours. The changes in cell morphology were visualized using Leica DMIL (Leica Microsystem). Cells were harvested and rinsed twice with ice-cold PBS (pH7.4) and a total 2.5×10^5 K562 cells were stained with 10 μl Annexin V and 10 μl propidium iodide in 100 μl 1×binding buffer for 15 minutes in dark and then subjected to apoptosis analysis with FACSCalibar Flow cytometer system (FACS Calibur BD Flow Cytometer). • 6.1.5 Flow Cytometry for Cell Cycle Analysis
# After 48 hours of cucurbitacin B treatment, the cells were viewed using a Leica DMIL microscope at 400×magnification. […] However, the treated cells lost the rounded shape and shrank in size at the highest dose of cucurbitacin B used (80nM).
compound,measurement,setting,value
CC(=O)OC(C)(C)/C=C/C(=O)[C@](C)(O)C1[C@H](O)C[C@@]2(C)C3CC=C4C(C[C@H](O)C(=O)C4(C)C)[C@]3(C)C(=O)C[C@]12C (stereo partly drawn) [cucurbitacin B],Stat3 activation,"[1]; HepG2 cells and HT29 cells, 25 ug/ml, 30 minutes",inhibited significantly
same,Stat3 activation,[1]; MCF-7 cells,no significant change
same,Ras-GTP activation,[2],no significant change
same,cell morphology (multinucleation),[3],"enlarged, multinucleated cells"
same,GI50,[4],5810 nM
same,GI50,[5],15.6 nM
same,cell cycle effect,[6],arrest at G1 and/or G2 phase
same,changes in cell morphology,[7]; 20 nM and 40 nM,increase in cell size
same,changes in cell morphology,[7]; 80 nM,shrinkage of cell size
